From US10669284B2, “Fused thiazolopyrimidine derivatives as MNKS inhibitors” (LIFEARC, priority 2015, dated 2020)

Experiments:
Full-length human MNK1 = biological target: T1, Full-length human MNK1 (Homo sapiens, UniProt Q9BUB5, T385D); assay: MNK1 biochemical IC50 assay (Caliper Mobility Shift Assay); conditions: read-out: P(IC50) MNK1 (converted)
T1 construct: GST (N); purchased Carna Biosciences 02-145; host or cells: baculovirus expression system
From the text: (§1) The phosphorylated peptide product and unphosphorylated peptide substrate were detected using a Caliper Mobility Shift Assay using the Caliper LabChip EZ Reader II.
(§2) The Caliper Mobility Shift Assay technology is based on the utilisation of a microfluidic chip to measure the conversion of a fluorescent non-phosphorylated peptide substrate to phosphorylated product by electrophoresis separation of substrate and product and detection via Laser-induced fluorescence. The LabChip EZ Reader software calculates the relative heights of substrate and product peaks and reports the peak ratio (Product peak(P) divided by the sum of Product peak(P) and Substrate peak(S)). The percent-conversion is calculated as 100×[(P/(P+S)]. All assays were set up to run in the linear phase with a maximum of 10 percent substrate conversion.
(§3) These were N-terminal GST fusion proteins expressed in baculovirus expression system and purified by glutathione sepharose affinity chromatography. […] All other assay reagents were sourced from Sigma.
Compounds were serially diluted in DMSO to generate a 10-point half log dilution curve with a final top concentration of 100 uM in the assay. […] Compounds were pre-incubated with enzyme and peptide in reaction buffer for 30 mins prior to addition of ATP to initiate the reaction. Final assay concentrations were 3 nM MNK1, 2 uM peptide substrate, 50 uM ATP, 50 mM Hepes pH 7.0, 0.01% BSA, 10 mM MgCl2, 1 mM dithiothrietol.
(§4) The assay incubation times were adjusted depending on the concentration of ATP used. Assays were performed at low (50 uM) and high (1 mM) ATP. The low ATP values were selected to run at Km conditions for the standard assay to allow relative potencies to be compared across other kinases. The high ATP concentration was selected as representative of cellular ATP concentrations, and for an indication of ATP competition, where a significant shift (greater than half log) in apparent potency would be expected compared to Km conditions. All IC50 values reported are the average of at least two independent experiments.

Full-length human MNK2 = biological target: T2, Full-length human MNK2 (Homo sapiens, UniProt Q9HBH9, T379D); assay: MNK2 biochemical IC50 assay (Caliper Mobility Shift Assay); conditions: read-out: P(IC50) MNK2 (converted)
T2 construct: GST (N); purchased Carna Biosciences 02-146; host or cells: baculovirus expression system
From the text: as §1, §2, §3, §4
Reactions were performed as above using 10 nM MNK2 in the assay. Standard assays contained 50 uM ATP and high concentration ATP assays contained 1 mM ATP. […] All other conditions were the same.

[1] = system: phosphorylation of eIF4E at ser209 in MV4.11 cell line; assay: MNK cellular activity phospho-eIF4E detection assay (Alphascreen Surefire); type: cell-based; conditions: Homo sapiens; MV4.11 cell line, phospho-eIF4E (ser209) Alphascreen Surefire; read-out: P(IC50) elF4E (converted)
Protocol: The assay detection is based on the formation of sandwich antibody complexes coupled to donor and acceptor beads. Excitation at 680 nm causes the transfer of a singlet oxygen species between donor and acceptor beads when they are in close proximity by binding to the analyte ([…]), which results in the emission of light at 520-620 nm.
Cells were then lysed and the Alphascreen Surefire protocol followed according to manufacturer's recommendations. 8 ul Acceptor beads (1:50 dilution in kit activation buffer) was added to lysate, shaken 150 rpm for 2 min and incubated for 1.5 hr at room temperature. 3 ul Donor beads (1:20 dilution in kit dilution buffer) were then added, shaken 150 rpm for 2 min and incubated for a further 1.5 hr at room temperature after which the plates were read on Pherastar FS using Alphascreen optic module.
Data were normalised relative to untreated DMSO only controls and curves repeated in duplicate within experiments. Data reported are averages of at least 2 independent experiments.

T2 sequence (Q9HBH9 whole entry T379D): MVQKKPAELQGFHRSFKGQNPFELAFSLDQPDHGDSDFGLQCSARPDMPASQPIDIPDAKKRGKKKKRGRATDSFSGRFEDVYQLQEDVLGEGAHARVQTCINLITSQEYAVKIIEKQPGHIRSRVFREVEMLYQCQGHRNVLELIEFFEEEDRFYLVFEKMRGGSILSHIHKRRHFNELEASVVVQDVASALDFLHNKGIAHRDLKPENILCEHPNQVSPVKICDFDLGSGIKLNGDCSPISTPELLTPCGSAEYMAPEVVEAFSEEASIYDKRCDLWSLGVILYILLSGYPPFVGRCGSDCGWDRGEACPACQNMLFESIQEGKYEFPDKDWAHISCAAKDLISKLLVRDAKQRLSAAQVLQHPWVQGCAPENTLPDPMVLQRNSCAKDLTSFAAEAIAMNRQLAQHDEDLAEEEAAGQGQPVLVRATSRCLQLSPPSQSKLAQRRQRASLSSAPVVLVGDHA
T1 sequence (Q9BUB5 1-424 isoform Q9BUB5-2 T344D): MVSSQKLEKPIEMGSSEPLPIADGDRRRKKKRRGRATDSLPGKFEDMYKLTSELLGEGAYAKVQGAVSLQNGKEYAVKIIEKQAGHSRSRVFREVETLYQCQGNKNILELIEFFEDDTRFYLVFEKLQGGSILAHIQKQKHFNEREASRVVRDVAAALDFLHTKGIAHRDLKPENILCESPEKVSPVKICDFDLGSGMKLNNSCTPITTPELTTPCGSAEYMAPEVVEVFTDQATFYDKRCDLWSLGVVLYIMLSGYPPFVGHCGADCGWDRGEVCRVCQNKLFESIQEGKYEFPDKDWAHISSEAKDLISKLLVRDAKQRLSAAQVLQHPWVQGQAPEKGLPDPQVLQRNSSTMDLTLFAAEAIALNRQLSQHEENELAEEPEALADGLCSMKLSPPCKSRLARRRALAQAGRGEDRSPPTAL

| Structure (SMILES) | IC50 (Full-length human MNK1) [nM] | IC50 (Full-length human MNK2) [nM] | IC50 [1] [nM] |
| --- | --- | --- | --- |
| CC(C)[C@@H](CO)NC(=O)c1nc2c(N3CCc4ccccc43)ncnc2s1 [Example 101, N-[(1S)-1-(hydroxymethyl)-2-methyl-propyl]-7-indolin-1-yl-thiazolo[5,4-d]pyrimidine-2-carboxamide] | 10 | 12.6 | 31.6 |
| CC1(CCO)CN(c2ncnc3sc(C(=O)NCC4CCNCC4)nc23)c2ccccc21 (stereo not drawn) [Example 144] | 12.6 | 15.8 | 20 |
| CC1(CCO)CN(c2ncnc3sc(C(=O)NC4CCOCC4)nc23)c2ccccc21 (stereo not drawn) [Example 113, 7-[3-(2-hydroxyethyl)-3-methyl-indolin-1-yl]-N-tetrahydropyran-4-yl-thiazolo[5,4-d]pyrimidine-2-carboxamide] | 39.8 | 39.8 | 39.8 |
| CC(C)Oc1ncccc1Nc1ncnc2sc(C(=O)NCC3CCNCC3)nc12 [Example 55, 7-[(2-Isopropoxy-3-pyridyl)amino]-N-(4-piperidylmethyl)thiazolo[5,4-d]pyrimidine-2-carboxamide] | 316 | 251 | 316 |
| O=C(NC1CCOCC1)c1nc2c(N3CCc4cnccc43)ncnc2s1 [Example 43, 7-(2,3-Dihydro-1H-pyrrolo[3,2-c]pyridin-1-yl)-N-(tetrahydro-2H-pyran-4-yl)[1,3]thiazolo[5,4-d]pyrimidine-2-carboxamide] | 39.8 | 31.6 | 25.1 |
| CC1Cc2ccccc2N1c1ncnc2sc(C(=O)NCC3CCNCC3)nc12 (stereo in doubt) [Example 134, 7-[(2R)-2-methylindolin-1-yl]-N-(4-piperidyl-methyl)thiazolo[5,4-d]pyrimidine-2-carboxamide] | 31.6 | 25.1 | 39.8 |
| CN(C)Cc1cn(-c2ncnc3sc(C(=O)NC4CCOCC4)nc23)c2ccccc12 [Example 121, 7-[3-[(dimethylamino)methyl]indol-1-yl]-N-tetrahydropyran-4-yl-thiazolo[5,4-d]pyrimidine-2-carboxamide] | 39.8 | 79.4 | 79.4 |
| O=C(NC1CCOCC1)c1nc2c(N3CCc4cccc(F)c43)ncnc2s1 [Example 90, 7-(7-Fluoroindolin-1-yl)-N-tetrahydropyran-4-yl-thiazolo[5,4-d]pyrimidine-2-carboxamide] | 126 | 126 | 158 |
| CC(C)Oc1cc(F)ccc1Nc1ncnc2sc(C(=O)NC3CNC3)nc12 [Example 28, N-(azetidin-3-yl)-7-{[4-fluoro-2-(propan-2-yloxy)phenyl]amino}[1,3]thiazolo[5,4-d]pyrimidine-2-carboxamide] | 126 | 79.4 | 79.4 |
| CN(C)C(=O)c1nc2c(N3CCc4cc(F)ccc43)ncnc2s1 [Example 70, 7-(5-fluoroindolin-1-yl)-N,N-dimethyl-thiazolo[5,4-d]pyrimidine-2-carboxamide] | 50.1 | 20 | 63.1 |
| CNC(=O)c1nc2c(N3CCc4cc(F)ccc43)ncnc2s1 [Example 69, 7-(5-fluoroindolin-1-yl)-N-methyl-thiazolo[5,4-d]pyrimidine-2-carboxamide] | 6.31 | 5.01 | 6.31 |
| CC(C)Oc1cc(F)ccc1Nc1ncnc2sc(C(=O)NC3CC4CCC(C3)N4C(=O)OC(C)(C)C)nc12 (stereo not drawn) [Example 6, tert-butyl 3-[[7-(4-fluoro-2-isopropoxy-anilino)thiazolo[5,4-d]pyrimidine-2-carbonyl]amino]-8-azabicyclo[3.2.1]octane-8-carboxylate] | 794 | 398 | 251 |
| N#Cc1ccc2c(c1)CCN2c1ncnc2sc(C(=O)NC3CCOCC3)nc12 [Example 42, 7-(5-cyano-2,3-dihydro-1H-indol-1-yl)-N-(tetrahydro-2H-pyran-4-yl)[1,3]thiazolo[5,4-d]pyrimidine-2-carboxamide] | 31.6 | 20 | 31.6 |
| CC(C)(O)CC1CN(c2ncnc3sc(C(=O)NCC4CCNCC4)nc23)c2ccc(F)cc21 (stereo not drawn) [Example 143] | 7.94 | 6.31 | 5.01 |
| O=C(NCC1CCNCC1)c1nc2c(N3CCc4cc(Br)ccc43)ncnc2s1 [Example 169, 7-(5-Bromoindolin-1-yl)-N-(4-piperidylmethyl)thiazolo[5,4-d]pyrimidine-2-carboxamide] | 7.94 | 7.94 | 31.6 |
| CC1Cc2ccccc2N1c1ncnc2sc(C(=O)NC3CCN(C)CC3)nc12 (stereo not drawn) [Example 123, 7-(2-Methylindolin-1-yl)-N-(1-methyl-4-piperidyl)thiazolo[5,4-d]pyrimidine-2-carboxamide] | 25.1 | 15.8 | 20 |
| CN(C)CCNc1nc2c(N3CCc4cc(F)ccc43)ncnc2s1 [Example 86] | 63.1 | 79.4 | 251 |
| O=C(NCCN1CCCC1)c1nc2c(N3CCc4cc(F)ccc43)ncnc2s1 [Example 74, 7-(5-fluoroindolin-1-yl)-N-(2-pyrrolidin-1-ylethyl)thiazolo[5,4-d]pyrimidine-2-carboxamide] | 6.31 | 5.01 | 20 |
| CC(C)(O)CC1CN(c2ncnc3sc(C(=O)NCC4CCNCC4)nc23)c2ccccc21 (stereo not drawn) [Example 142] | 15.8 | 15.8 | 10 |
| O=C(NCC1CCNCC1)c1nc2c(N3c4ccccc4C[C@@H]3CO)ncnc2s1 [Example 138] | 398 | 316 | 200 |
| COCCCNC(=O)c1nc2c(N3CC(CCN)c4ccccc43)ncnc2s1 (stereo not drawn) [Example 166, 7-[3-(2-amino-ethyl)indolin-1-yl]-N-(3-methoxypropyl) thiazolo[5,4-d]pyrimidine-2-carboxamide] | 5.01 | 5.01 | 3.98 |
| O=C(NCC1CCNCC1)c1nc2c(N3CCc4ccccc43)ncnc2s1 [Example 94, 7-Indolin-1-yl-N-(4-piperidylmethyl)thiazolo[5,4-d]pyrimidine-2-carboxamide] | 6.31 | 3.98 | 7.94 |
| O=C(NCC1CCNCC1)c1nc2c(N3CC(CCO)c4cc(F)ccc43)ncnc2s1 (stereo not drawn) [Example 139] | 2.51 | 3.16 | 31.6 |
| O=C(NC1CCOCC1)c1nc2c(N3CC(CO)c4ccccc43)ncnc2s1 (stereo not drawn) [Example 109, 7-[3-(hydroxymethyl)indolin-1-yl]-N-tetrahydropyran-4-yl-thiazolo[5,4-d]pyrimidine-2-carboxamide] | 12.6 | 7.94 | 12.6 |
| CC1CN(c2ncnc3sc(C(=O)NCC4CCNCC4)nc23)c2ccccc21 (stereo not drawn) [Example 146] | 6.31 | 7.94 | 5.01 |
| O=C(NC1CCOC1)c1nc2c(N3CCc4cc(F)ccc43)ncnc2s1 (stereo not drawn) [Example 77, 7-(5-fluoroindolin-1-yl)-N-tetrahydrofuran-3-yl-thiazolo[5,4-d]pyrimidine-2-carboxamide] | 2 | 2 | 3.98 |
| CC(C)Oc1ccccc1Nc1ncnc2sc(C(=O)NCCCN(C)C)nc12 [Example 23, N-[3-(Dimethylamino)propyl]-7-(2-isopropoxyanilino)thiazolo[5,4-d]pyrimidine-2-carboxamide] | 100 | 63.1 | 63.1 |
| CNCCCNC(=O)c1nc2c(Nc3ccc(F)cc3OC(C)C)ncnc2s1 [Example 29, 7-{[4-Fluoro-2-(propan-2-yloxy)phenyl]amino}-N-[3-(methylamino)propyl][1,3]thiazolo[5,4-d]pyrimidine-2-carboxamide] | 63.1 | 50.1 | 39.8 |
